Assay results published in patent US20120270237A9, “METHODS FOR THE IDENTIFICATION OF KINASE INTERACTING MOLECULES AND FOR THE PURIFICATION OF KINASE PROTEINS” (Cellzone AG, priority 2009, published 2012).

Tests used:
Assay in all cases: Kinobeads competition binding, HeLa Placenta lysate mix
Set-up in all cases: endogenous in cells
Conditions in all cases: 10 μM free compound
AAK1 = AAK1 (Homo sapiens, UniProt Q2M2I8)
Method: (§1) To one aliquot of cell lysate 10 μM of the free compound (FIG. 3, CZC31326) was added and allowed to bind to proteins in the lysate. Then the affinity matrix with the immobilized compound was added to capture proteins that were not interacting with the previously added free compound. Beads were separated from the lysate and bead bound proteins were eluted in SDS sample buffer and subsequently separated by SDS-Polyacrylamide gel electrophoresis (FIG. 10). Suitable gel bands were cut out and subjected to in-gel proteolytic digestion with trypsin. The second lysate aliquot was processed identically, however no free compound was added (DMSO solvent control). Peptides originating from samples 1 and 2 were labeled with iTRAQ reagents (iTRAQ 114 and iTRAQ 117) and the combined samples were analyzed with a nano-flow liquid chromatography system coupled online to a tandem mass spectrometer (LC-MS/MS) experiment followed by iTRAQ reporter ion quantification in the MS/MS spectra as described in Example 2.

PIP5K2C = biological target: T1, PIP5K2C (Homo sapiens, UniProt Q8TBX8)
T1 sequence (Q8TBX8 1-421): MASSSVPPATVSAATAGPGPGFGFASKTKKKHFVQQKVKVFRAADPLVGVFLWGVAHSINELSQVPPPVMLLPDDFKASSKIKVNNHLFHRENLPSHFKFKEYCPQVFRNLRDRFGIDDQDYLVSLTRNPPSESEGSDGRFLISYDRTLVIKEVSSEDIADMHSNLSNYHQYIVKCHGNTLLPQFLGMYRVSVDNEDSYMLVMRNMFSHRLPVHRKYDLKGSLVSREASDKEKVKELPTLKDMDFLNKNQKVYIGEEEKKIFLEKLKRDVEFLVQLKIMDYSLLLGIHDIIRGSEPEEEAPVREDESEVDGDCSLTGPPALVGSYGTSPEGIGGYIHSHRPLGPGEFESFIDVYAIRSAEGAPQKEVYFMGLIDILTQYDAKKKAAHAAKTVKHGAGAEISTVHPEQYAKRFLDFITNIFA
Method: as §1

CaMK2g = CaMK2g (Homo sapiens, UniProt Q13555)
Method: as §1

GSK3B = GSK3B (Homo sapiens, UniProt P49841)
Method: as §1

IRAK4 = biological target: T2, IRAK4 (Homo sapiens, UniProt Q9NWZ3)
T2 sequence (Q9NWZ3 1-460): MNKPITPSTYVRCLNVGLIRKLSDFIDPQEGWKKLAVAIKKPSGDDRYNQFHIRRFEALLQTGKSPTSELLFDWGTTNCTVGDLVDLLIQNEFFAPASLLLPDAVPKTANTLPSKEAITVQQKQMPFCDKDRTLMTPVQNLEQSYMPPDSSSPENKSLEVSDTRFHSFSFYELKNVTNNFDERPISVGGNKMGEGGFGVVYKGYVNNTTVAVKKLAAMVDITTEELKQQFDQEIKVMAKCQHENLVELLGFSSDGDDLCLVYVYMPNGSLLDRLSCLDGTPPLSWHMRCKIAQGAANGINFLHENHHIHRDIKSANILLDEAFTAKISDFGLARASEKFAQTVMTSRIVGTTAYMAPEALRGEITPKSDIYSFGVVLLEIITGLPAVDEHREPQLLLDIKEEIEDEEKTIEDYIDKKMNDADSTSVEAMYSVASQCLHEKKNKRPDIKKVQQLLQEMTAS
Method: as §1

PKN1 = PKN1 (Homo sapiens, UniProt Q16512)
Method: as §1

CaMKK2 = CaMKK2 (Homo sapiens, UniProt Q96RR4)
Method: as §1

TBK1 = biological target: T3, TBK1 (Homo sapiens, UniProt Q9UHD2)
T3 sequence (Q9UHD2 1-729): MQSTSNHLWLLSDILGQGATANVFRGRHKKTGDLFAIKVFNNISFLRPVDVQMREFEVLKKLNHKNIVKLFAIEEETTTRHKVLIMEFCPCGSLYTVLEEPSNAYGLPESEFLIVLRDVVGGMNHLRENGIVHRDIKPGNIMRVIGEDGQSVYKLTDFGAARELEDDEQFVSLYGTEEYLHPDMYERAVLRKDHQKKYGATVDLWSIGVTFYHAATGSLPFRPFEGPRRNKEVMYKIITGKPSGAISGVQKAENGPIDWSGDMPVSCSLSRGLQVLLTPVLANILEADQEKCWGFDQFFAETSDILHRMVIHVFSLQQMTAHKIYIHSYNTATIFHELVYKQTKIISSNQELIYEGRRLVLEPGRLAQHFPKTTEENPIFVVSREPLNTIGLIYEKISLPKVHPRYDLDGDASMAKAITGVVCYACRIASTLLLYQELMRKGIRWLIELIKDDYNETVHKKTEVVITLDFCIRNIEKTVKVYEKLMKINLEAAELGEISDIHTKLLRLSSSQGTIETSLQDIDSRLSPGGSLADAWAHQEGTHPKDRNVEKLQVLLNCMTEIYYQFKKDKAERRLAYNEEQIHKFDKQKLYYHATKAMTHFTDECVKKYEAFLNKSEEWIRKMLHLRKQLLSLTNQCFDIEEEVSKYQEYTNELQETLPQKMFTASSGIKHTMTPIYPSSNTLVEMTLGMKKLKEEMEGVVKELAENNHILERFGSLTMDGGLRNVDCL
Method: as §1

Sequence of CaMKK2 (Q96RR4 whole entry): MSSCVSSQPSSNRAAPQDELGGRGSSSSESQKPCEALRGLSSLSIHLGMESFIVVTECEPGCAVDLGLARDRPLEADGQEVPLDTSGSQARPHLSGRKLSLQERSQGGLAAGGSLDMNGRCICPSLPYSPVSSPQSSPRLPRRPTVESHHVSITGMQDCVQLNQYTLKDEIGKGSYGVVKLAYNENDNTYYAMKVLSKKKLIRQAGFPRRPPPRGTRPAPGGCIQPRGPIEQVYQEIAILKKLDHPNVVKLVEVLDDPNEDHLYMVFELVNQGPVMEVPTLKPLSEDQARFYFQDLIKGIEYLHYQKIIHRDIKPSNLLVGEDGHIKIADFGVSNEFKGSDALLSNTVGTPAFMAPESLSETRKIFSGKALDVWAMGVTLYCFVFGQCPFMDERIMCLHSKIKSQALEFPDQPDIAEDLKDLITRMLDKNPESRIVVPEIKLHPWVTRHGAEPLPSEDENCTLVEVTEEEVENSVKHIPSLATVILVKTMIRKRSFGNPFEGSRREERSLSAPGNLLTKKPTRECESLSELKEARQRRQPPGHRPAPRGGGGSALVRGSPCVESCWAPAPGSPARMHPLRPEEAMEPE
Sequence of CaMK2g (Q13555 whole entry): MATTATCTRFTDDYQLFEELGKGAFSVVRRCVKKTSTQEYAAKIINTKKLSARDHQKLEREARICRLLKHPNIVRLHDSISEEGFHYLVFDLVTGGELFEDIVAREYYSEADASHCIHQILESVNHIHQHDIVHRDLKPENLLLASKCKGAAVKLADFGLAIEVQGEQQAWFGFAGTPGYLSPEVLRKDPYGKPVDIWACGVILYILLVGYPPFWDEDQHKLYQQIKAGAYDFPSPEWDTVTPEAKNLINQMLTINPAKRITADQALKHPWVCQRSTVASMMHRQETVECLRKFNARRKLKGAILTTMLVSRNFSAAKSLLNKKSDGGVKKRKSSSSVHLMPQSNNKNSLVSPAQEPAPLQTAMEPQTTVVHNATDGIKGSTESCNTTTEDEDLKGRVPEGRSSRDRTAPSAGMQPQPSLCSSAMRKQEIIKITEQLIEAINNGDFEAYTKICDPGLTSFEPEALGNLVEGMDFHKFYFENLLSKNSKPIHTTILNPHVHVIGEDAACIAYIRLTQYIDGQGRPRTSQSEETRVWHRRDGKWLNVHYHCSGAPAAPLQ
Sequence of AAK1 (Q2M2I8 whole entry): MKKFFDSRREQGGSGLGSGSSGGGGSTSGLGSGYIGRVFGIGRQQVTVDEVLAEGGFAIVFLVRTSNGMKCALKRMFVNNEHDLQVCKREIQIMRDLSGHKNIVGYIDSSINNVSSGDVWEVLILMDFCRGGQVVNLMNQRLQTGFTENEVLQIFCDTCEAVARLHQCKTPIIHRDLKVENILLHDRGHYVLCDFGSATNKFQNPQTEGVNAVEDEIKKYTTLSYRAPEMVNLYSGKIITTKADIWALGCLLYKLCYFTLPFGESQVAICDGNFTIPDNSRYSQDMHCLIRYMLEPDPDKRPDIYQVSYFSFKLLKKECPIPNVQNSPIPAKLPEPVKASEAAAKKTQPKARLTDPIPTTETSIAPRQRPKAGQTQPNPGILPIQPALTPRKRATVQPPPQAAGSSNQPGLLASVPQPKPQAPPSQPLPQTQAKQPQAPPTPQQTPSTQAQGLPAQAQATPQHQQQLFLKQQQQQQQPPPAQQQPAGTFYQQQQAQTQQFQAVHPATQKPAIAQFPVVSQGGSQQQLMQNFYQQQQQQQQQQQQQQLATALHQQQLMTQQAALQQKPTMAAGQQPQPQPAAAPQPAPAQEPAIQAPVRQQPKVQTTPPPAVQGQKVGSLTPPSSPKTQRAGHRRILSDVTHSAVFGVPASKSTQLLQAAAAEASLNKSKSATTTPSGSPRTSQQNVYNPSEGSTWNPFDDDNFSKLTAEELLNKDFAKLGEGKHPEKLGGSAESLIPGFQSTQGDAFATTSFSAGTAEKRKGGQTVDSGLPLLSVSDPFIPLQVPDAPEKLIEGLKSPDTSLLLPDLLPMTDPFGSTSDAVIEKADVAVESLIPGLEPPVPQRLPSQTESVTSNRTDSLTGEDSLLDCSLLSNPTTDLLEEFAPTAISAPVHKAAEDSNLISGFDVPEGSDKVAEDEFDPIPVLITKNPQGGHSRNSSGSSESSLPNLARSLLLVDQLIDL
Sequence of GSK3B (P49841 whole entry): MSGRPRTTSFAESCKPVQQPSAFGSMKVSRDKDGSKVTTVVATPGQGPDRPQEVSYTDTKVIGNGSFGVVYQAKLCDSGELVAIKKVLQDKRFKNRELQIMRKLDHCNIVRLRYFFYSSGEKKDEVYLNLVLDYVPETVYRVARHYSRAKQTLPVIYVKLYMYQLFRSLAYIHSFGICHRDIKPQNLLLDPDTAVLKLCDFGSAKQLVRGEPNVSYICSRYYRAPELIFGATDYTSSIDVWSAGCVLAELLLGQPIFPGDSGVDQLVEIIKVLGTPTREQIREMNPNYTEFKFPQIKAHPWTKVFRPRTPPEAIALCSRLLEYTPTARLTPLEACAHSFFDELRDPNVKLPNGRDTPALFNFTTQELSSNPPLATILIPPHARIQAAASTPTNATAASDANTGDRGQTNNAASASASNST
Sequence of PKN1 (Q16512 whole entry): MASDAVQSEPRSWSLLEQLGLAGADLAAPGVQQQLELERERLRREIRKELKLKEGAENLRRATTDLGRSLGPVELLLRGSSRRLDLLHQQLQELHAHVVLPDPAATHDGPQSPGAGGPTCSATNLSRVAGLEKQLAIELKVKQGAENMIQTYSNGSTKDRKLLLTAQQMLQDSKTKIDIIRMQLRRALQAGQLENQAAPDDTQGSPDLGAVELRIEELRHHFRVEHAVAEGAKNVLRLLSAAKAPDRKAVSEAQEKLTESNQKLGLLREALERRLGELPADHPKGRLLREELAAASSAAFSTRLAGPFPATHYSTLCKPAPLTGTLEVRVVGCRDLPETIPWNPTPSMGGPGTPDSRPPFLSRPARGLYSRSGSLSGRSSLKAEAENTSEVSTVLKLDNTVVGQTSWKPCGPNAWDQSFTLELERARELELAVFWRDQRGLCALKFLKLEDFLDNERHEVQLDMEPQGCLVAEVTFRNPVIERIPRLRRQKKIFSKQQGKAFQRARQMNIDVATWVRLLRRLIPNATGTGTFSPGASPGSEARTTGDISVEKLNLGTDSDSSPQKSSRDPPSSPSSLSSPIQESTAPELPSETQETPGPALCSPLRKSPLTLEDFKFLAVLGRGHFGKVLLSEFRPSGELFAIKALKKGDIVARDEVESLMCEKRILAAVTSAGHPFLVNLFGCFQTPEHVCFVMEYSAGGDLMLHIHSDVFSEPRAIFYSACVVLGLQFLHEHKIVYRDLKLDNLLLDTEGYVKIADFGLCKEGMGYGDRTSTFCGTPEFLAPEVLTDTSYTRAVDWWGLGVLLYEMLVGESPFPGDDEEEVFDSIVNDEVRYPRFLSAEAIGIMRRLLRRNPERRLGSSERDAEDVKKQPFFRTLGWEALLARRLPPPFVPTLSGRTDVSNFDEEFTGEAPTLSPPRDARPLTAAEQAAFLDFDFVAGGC

inhibition at 10 µM (AAK1): 94.5%
inhibition at 10 µM (PIP5K2C): 95.4%
inhibition at 10 µM (CaMK2g): 84.8%
inhibition at 10 µM (GSK3B): 93.3%
Competition % (IRAK4): 93.8%
inhibition at 10 µM (PKN1): 93.7%
inhibition at 10 µM (CaMKK2): 94.3%
inhibition at 10 µM (TBK1): 93.8%
Compound: CS(=O)(=O)Nc1ccccc1Nc1nc(Nc2cccc(OCCN)c2)ncc1Cl [CZC31326, N-(2-(2-(3-(2-aminoethoxy)phenylamino)-5-chloropyrimidin-4-ylamino)phenyl)methanesulfonamide]
